From US20250197387A1, “BCL-XL DEGRADERS AND USES THEREOF” (Kymera Therapeutics, Inc., priority 2021, published 2025)

Molecular target: T1, BCL-XL (Homo sapiens, UniProt Q07817)
T1 construct: endogenous in cells; host or cells: MOLT-4
Assay: BCL-XL degradation assay, western blot in MOLT-4 cells, 16 h
Assay type: cell-based
Conditions: western blot, MOLT-4 cells, 16 h; for Dmax: read-out: Bcl-xL WB in MOLT-4 degradation 16 h: Average Dmax %; for DC50: read-out: Bcl-xL WB in MOLT-4 degradation 16 h: Mean external-Abs DC50
Method: Compounds treatment: compounds were reconstituted in DMSO to make a stock concentration of 10 mM. MOLT-4 cells were maintained in RPMI-1640+10% FBS+1% Penicillin-Streptomycin. Cells were seeded into 6-well plates in 2 mL at the seeding density of 2e6 cells/mL. Compounds were added to the cells to a final concentration ranging 0.02-10 μM. After 16 hr incubation at 37° C., in a CO2 incubator, cells were collected in an Eppendorf tube and centrifuged at 200×g for 5 minutes, the supernatant removed and pellets washed with ice-cold PBS, centrifuged and supernatant removed again. Then. 50 μl of pre-chilled RIPA lysis buffer (Boston BioProducts. BP-115D) with protease and phosphatase inhibitors (Roche Applied Science. #04906837001 and #04693116001) was added into cell pellet to lyze the cells for 20 minutes under 4° C. Cell lysates were spin at 13000 rpm for 10 minutes. Supernatants were collected and protein concentration was measured by BCA assay kit (Solarbio. PC0020-500) following the manufacturer's protocol. Samples' final protein concentration was adjusted to 3.75 μg/uL with the RIPA lysis buffer based on BCA assay results and 4× loading buffer (Invitrogen. NP0007) was added into the samples and samples were heated to 85° C., for 10 min and then let cool at RT. Samples were centrifuged at 13000 rpm for 10 min and then loaded into a 26-well NuPAGER. Novex 4-12% Bis-Tris Midi Gel (Invitrogen. WG1403BOX) and run in NuPAGER MOPS SDS Running Buffer (Invitrogen. NP0001) for 180 minutes at 70 V into a XCell4 SureLock™ Midi-Cell Runner (Invitrogen. WR0100). Gel were transferred using the Invitrogen iBlot gel transfer device (Invitrogen. IB21001) and the nitrocellulose transfer stacks (Invitrogen, IB23001) with Program PO for 9 minutes. The membrane was then blocked with 5% bovin serum albumin for 1 hr at RT, then incubated with primary antibodies diluted in blocking buffer (LI-COR. 927-60001) and shake at 4° C., overnight. The primary antibodies were anti-BCL-xL antibody (CST. 2762:1:1000), anti-beta-actin (CST. 3700; 1:5000) and anti-GAPDH (CST. 97166:1:5000). Membranes were then washed three times with PBST for 15 minutes at RT. Secondary antibodies IR-Dye 680 CW Goat anti Mouse IgG (LI-COR. 926-68070) and IR-Dye 800 CW Goat anti Rabbit IgG (LI-COR. 926-32211) were diluted at a ratio of 1:10000 into PBST and membranes incubated for 1 hour at RT. Membranes were then washed three times with PBST for 15 minutes at RT. The western blot images were obtained using Odyssey Imaging System and quantified using Image Studio Lite Ver 5.2 software.
The letter codes for BCL-XL DC50 include: A (<0.01 μM); B (0.01-0.1 μM); C (>[…]); D (>0.5-1.0 μM); and E (>1.0 μM). The letter codes for Dmax % include A (>75%); B (50 to 75%); C (<50%).

T1 sequence (Q07817 whole entry): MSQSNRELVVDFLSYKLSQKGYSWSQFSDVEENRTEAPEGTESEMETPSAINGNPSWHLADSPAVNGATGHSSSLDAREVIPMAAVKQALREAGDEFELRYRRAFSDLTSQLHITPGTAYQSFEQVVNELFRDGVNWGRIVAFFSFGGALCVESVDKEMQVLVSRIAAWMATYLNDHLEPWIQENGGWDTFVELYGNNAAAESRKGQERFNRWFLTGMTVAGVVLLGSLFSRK

SMILES	Dmax	DC50
Cc1ncsc1-c1ccc([C@H](C)NC(=O)[C@@H]2C[C@@H](O)CN2C(=O)[C@@H](NC(=O)CCCC(=O)N(C)CCN(C)c2cc3c(c(C(=O)Nc4nc5ccccc5s4)c2)CN(c2ccc(-c4cnn(CC5CCCCC5)c4C)c(C(=O)O)n2)CC3)C(C)(C)C)cc1 [I-110]	< 50%	> 1000 nM
Cc1cc(N(CCCC(=O)N[C@H](C(=O)N2C[C@H](O)C[C@H]2C(=O)N[C@@H](C)c2ccc(-c3scnc3C)cc2)C(C)(C)C)c2ccc(-c3cnn(CC4CCCCC4)c3C)c(C(=O)O)n2)nnc1Nc1nc2ccccc2s1 [I-113]	< 50%	> 1000 nM
Cc1ncsc1-c1ccc([C@H](C)NC(=O)[C@@H]2C[C@@H](O)CN2C(=O)[C@@H](NC(=O)CCCCCS(=O)(=O)NC(=O)c2cccc(N3CCc4cccc(C(=O)Nc5nc6ccccc6s5)c4C3)n2)C(C)(C)C)cc1 [I-119]	< 50%	> 1000 nM
Cc1ncsc1-c1ccc([C@H](C)NC(=O)[C@@H]2C[C@@H](O)CN2C(=O)[C@@H](NC(=O)CCc2ccc(S(=O)(=O)NC(=O)c3ccc(N4CCN(CC5=C(c6ccc(Cl)cc6)CCC(C)(C)C5)CC4)cc3)cc2)C(C)(C)C)cc1 [I-124]	< 50%	> 1000 nM
Cc1ncsc1-c1ccc([C@H](C)NC(=O)[C@@H]2C[C@@H](O)CN2C(=O)[C@@H](NC(=O)N2CC3(CCC(C(=O)N4CCN(CC[C@H](CSc5ccccc5)Nc5ccc(S(=O)(=O)NC(=O)c6ccc(N7CCN(CC8=C(c9ccc(Cl)cc9)CCC(C)(C)C8)CC7)cc6)cc5S(=O)(=O)C(F)(F)F)CC4)CC3)C2)C(C)(C)C)cc1 [I-125]	< 50%	> 1000 nM

Other lines, results leading:

Dmax	DC50	SMILES
50 to 75%	> 1000 nM	Cc1cc(N(CCN(C)C(=O)CCCOc2cc(-c3scnc3C)ccc2CNC(=O)[C@@H]2C[C@@H](O)CN2C(=O)[C@@H](NC(=O)C2(F)CC2)C(C)(C)C)c2ccc(-c3cnn(CC4CCCCC4)c3C)c(C(=O)O)n2)nnc1Nc1nc2ccccc2s1 [I-102]
< 50%	> 1000 nM	Cc1cc(N(CCN(C)C(=O)CCCCCOc2cc(-c3scnc3C)ccc2CNC(=O)[C@@H]2C[C@@H](O)CN2C(=O)[C@@H](NC(=O)C2(F)CC2)C(C)(C)C)c2ccc(-c3cnn(CC4CCCCC4)c3C)c(C(=O)O)n2)nnc1Nc1nc2ccccc2s1 [I-103]
< 50%	> 1000 nM	Cc1cc(N(CCN(C)C(=O)CCCCCCCCOc2cc(-c3scnc3C)ccc2CNC(=O)[C@@H]2C[C@@H](O)CN2C(=O)[C@@H](NC(=O)C2(F)CC2)C(C)(C)C)c2ccc(-c3cnn(CC4CCCCC4)c3C)c(C(=O)O)n2)nnc1Nc1nc2ccccc2s1 [I-104]
< 50%	> 1000 nM	Cc1ncsc1-c1ccc([C@H](C)NC(=O)[C@@H]2C[C@@H](O)CN2C(=O)[C@@H](NC(=O)CCCCCS(=O)(=O)NC(=O)c2ccc(N3CCN(CC4=C(c5ccc(Cl)cc5)CCC(C)(C)C4)CC3)cc2)C(C)(C)C)cc1 [I-106]
50 to 75%	> 1000 nM	Cc1ncsc1-c1ccc([C@H](C)NC(=O)[C@@H]2C[C@@H](O)CN2C(=O)[C@@H](NC(=O)CCCCCCCS(=O)(=O)NC(=O)c2ccc(N3CCN(CC4=C(c5ccc(Cl)cc5)CCC(C)(C)C4)CC3)cc2)C(C)(C)C)cc1 [I-107]
< 50%	> 1000 nM	Cc1ncsc1-c1ccc(CNC(=O)[C@@H]2C[C@@H](O)CN2C(=O)[C@@H](NC(=O)CCCC(=O)N(C)CCN(C)c2cc3c(c(C(=O)Nc4nc5ccccc5s4)c2)CN(c2ccc(-c4cnn(CC5CCCCC5)c4C)c(C(=O)O)n2)CC3)C(C)(C)C)cc1 [I-109]
50 to 75%	500 to 1000 nM	Cc1ncsc1-c1ccc([C@H](C)NC(=O)[C@@H]2C[C@@H](O)CN2C(=O)[C@@H](NC(=O)C2(F)CC2)C(C)(C)C)c(OCC(=O)N2CCN(CC[C@H](CSc3ccccc3)Nc3ccc(S(=O)(=O)NC(=O)c4ccc(N5CCN(CC6=C(c7ccc(Cl)cc7)CCC(C)(C)C6)CC5)cc4)cc3S(=O)(=O)C(F)(F)F)CC2)c1 [I-112]
> 75%	< 10 nM	Cc1ncsc1-c1ccc([C@H](C)NC(=O)[C@@H]2C[C@@H](O)CN2C(=O)[C@@H](NC(=O)CCCS(=O)(=O)NC(=O)c2nc(N3CCc4cccc(C(=O)Nc5nc6ccccc6s5)c4C3)ccc2-c2cnn(CC34CC5CC(CC(C5)C3)C4)c2C)C(C)(C)C)cc1 [I-117]
